In test [1] the target is Catalase (from bovine liver), native (nC) (Bos taurus, UniProt P00432). The note with it: 50 mM phosphate buffer pH 7.4. As for the experimental part: (§1) SOD1 (from bovine erythrocytes), hydrogen peroxide (H2O2), 2,3,5-triphenyltetrazolium chloride (TTC) and copper standards for Inductively Coupled Plasma Mass Spectroscopy (ICP-MS)—TraceCERT®, 1000 mg/L Cu in nitric acid) were from Sigma-Aldrich (St. Louis, Mo.). Catalase (from bovine liver) was from Calbiochem (Gibbstown, N.J.). PEG-pLL50 was from Alamanda Polymers™ (Huntsville, Ala.). […] Cross-linkers 3,3′-dithiobis(sulfosuccinimidylpropionate) (DTSSP) and bis(sulfosuccinimidyl)suberate (BS^3) were from Thermo Fisher Scientific (Rockford, Ill.). NAP™ desalting columns and HiPrep 16/60 Sephacryl S-400 HR column were from GE Healthcare (Piscataway, N.J.). Criterion Tris-HCl gels and Precision Plus Protein™ All Blue Standards were from Bio-Rad (Hercules, Calif.). SYPRO® Ruby protein gel stain and cell culture reagents were purchased from Invitrogen (Carlsbad, Calif.). CellTiter 96® AQueous One Solution Cell Proliferation Assay (MTS) was from Promega (Madison, Wis.). LumiMax Superoxide Anion Detection Kit was from Agilent Technologies, Inc. (Santa Clara, Calif.). All other reagents and supplies were from Fisher Scientific (Pittsburgh, Pa.) unless noted otherwise.
Sequence of Catalase (from bovine liver), native (nC) (P00432 whole entry): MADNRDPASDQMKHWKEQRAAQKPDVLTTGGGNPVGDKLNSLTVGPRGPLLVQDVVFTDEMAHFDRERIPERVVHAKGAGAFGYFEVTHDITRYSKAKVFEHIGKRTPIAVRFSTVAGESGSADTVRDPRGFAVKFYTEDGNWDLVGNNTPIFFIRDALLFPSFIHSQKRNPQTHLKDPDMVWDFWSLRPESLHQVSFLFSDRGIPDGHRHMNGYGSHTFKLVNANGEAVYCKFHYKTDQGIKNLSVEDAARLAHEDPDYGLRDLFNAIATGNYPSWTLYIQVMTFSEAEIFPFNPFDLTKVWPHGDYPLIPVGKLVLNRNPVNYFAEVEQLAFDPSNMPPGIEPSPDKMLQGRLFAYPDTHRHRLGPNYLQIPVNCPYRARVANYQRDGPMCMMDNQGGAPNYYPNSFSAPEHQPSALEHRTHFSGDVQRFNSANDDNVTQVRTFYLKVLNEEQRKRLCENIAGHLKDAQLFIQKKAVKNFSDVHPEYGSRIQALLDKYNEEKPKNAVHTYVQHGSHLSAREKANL

The target in test [2] is Catalase (from bovine liver), DTSSP cross-linked cl-nanozyme with PEG-pLL50, non-purified (C2) (Bos taurus, UniProt P00432). As for the experimental part: as §1
Sequence of Catalase (from bovine liver), DTSSP cross-linked cl-nanozyme with PEG-pLL50, non-purified (C2) (P00432 whole entry): as above
(§2) Enzyme and polymer stock solutions were prepared in 10 mM HEPES (pH 7.4) and 10 mM HEPES-buffered saline (HBS; pH 7.4) for SOD1 and catalase, respectively. Non-cross-linked BICs (Z+/−=2) were prepared as described (Klyachko et al. (2012) Nanomed. Nanotechnol. Biol. Med., 8:119-129). Targeted degree of cross-linking was defined as the molar ratio between cross-linker (DTSSP/BS^3) and pLL amines. Precalculated amount of the respective cross-linker was dissolved in the reaction buffer (HEPES/HBS), quickly added to BICs, and the reaction mixture was briefly vortexed and incubated for 2 hours on ice. Unreacted crosslinker was desalted using NAP™ columns following manufacturer's instructions. Cl-Nanozymes were purified using size exclusion chromatography (SEC) (small/intermediate scale) or centrifugal filtration (large scale). SEC was carried out using an ÄKTA™ Fast Protein Liquid Chromatography (FPLC) (Amersham Biosciences, Piscataway, N.J.) system. DTSSP cl-nanozymes were lyophilized overnight, reconstituted in deionized water (DW), loaded onto a HiPrep 16/60 Sephacryl™ S-400 HR column and eluted using 10 mM HBS (pH 7.4) at a flow rate of 0.5 mL/minute. Prior to each experiment, the column was pre-conditioned with free block copolymer (PEG-pLL50) to minimize non-specific adsorption of the cl-nanozymes (Boeckle et al. (2004) J. Gene Med., 6:1102-1111). Fractions spanning each distinct peak were pooled, concentrated using Amicon® Ultra-4 Centrifugal Filter Units with a molecular weight cutoff (MWCO) of 3000 Da and desalted using NAP™ columns as needed. Protein concentration was determined using Micro BCA™ Protein Assay Kit. In large-scale preparations, clnanozymes were purified by centrifugal filtration using Macrosep™ Centrifugal Device (Pall Life Sciences, Ann Arbor, Mich.) with a MWCO of either 100 kDa (for SOD1) or 1000 kDa (for catalase). Briefly, unreacted cross-linker in cross-linked BICs was desalted using NAP™ columns and eluate was collected in 10 mM HEPES containing 0.3 M NaCl (pH 7.4). Samples were loaded onto the centrifugal device and concentrated to 10% original volume by centrifuging at 4500 RPM. Two rounds of purification were done in 10 mM HEPES buffer containing 0.3 M NaCl (pH 7.4) and the third round was done in 10 mM HEPES buffer (pH 7.4). […]

The target of test [3] is Catalase (from bovine liver), DTSSP cross-linked cl-nanozyme with PEG-pLL50, purified (C2p) (Bos taurus, UniProt P00432). As for the experimental part: as §1, §2
Sequence of Catalase (from bovine liver), DTSSP cross-linked cl-nanozyme with PEG-pLL50, purified (C2p) (P00432 whole entry): as above

With `OO` [H2O2, hydrogen peroxide], the Kcat/Km in test [1] is 1.5e+07 M⁻¹ s⁻¹; in test [2] (50 mM phosphate buffer pH 7.4, C2) it was 1.66e+07 M⁻¹ s⁻¹; in test [3] (50 mM phosphate buffer pH 7.4, C2p) it was 7.75e+06 M⁻¹ s⁻¹. In test [2] (non-purified cl-nanozyme (C2) compared to native catalase (nC)), the “increase in Km value” is “ca. 1.8 fold”. In addition, the “catalytic efficiency (kcat/Km), per cent lower than nC” value in test [3] (purified cl-nanozyme (C2p) compared to native enzyme (nC)) is listed as “ca. 48%”. Besides, in test [3] (purified cl-nanozyme (C2p) compared to non-purified (C2)), the “catalytic efficiency (kcat/Km), per cent lower than C2” value is reported as ~53%.

These data come from patent US20140120075A1, “Nanozyme Compositions and Methods of Synthesis and Use Thereof” (Board of Regents of the University of Nebraska, priority 2011, published 2014).
